Here are results for two compounds from article PMC6003898 (EJNMMI Research, 2018).

Data set [1] can be described thus: in vivo. Conditions: female, NMRI nu/nu, mouse, iv, 6 MBq, total radioactivity. How it is done: (§1) Tumor xenografts were obtained in mice flanks as described previously. Six-week-old female immunodeficient (nu/nu) NMRI mice, weighing 20–25 g, were obtained from Janvier Laboratories (Le Genest Saint Isle, France) and housed in ventilated cages including filter tops with an ad libitum access to food and water. Two xenograft tumors were induced in all mice through subcutaneous flank injections of 2.10^6 of human U87-MG cells. Tumor growth was assessed twice weekly, according to tumor volume (in mm^3) calculated with the formula d2 × D/2, where d and D represent the shortest and longest diameters, respectively, calculated in millimeter with a caliper (decrescent PRC, EDVC, France).
(§2) At the end of the 2nd PET recording, the animals were sacrificed by inhalation of 5% of isoflurane followed by cervical dislocation. Tumors were subsequently surgically removed for further histopathological analysis.
(§3) List-mode acquisitions of 120 min durations were initiated a few seconds prior to tracer injection, and the acquired PET data were subsequently reconstructed in 27 consecutive frames (i.e., 5 frames of 120-s duration followed by 22 frames of 5-min duration) using the ordered-subsets expectation maximization 3D algorithm (OSEM3D, 4 iterations, 16 subsets, zoom 1) together with scatter and attenuation corrections based on transmission source measurement. The final voxel size was 0.8 × 0.8 × 0.9 mm^3.
(§4) Tumor and of various organ activities were determined through SUV mean values within 3D regions of interests (ROI), which were drawn with a dedicated software (Inveon Research Workplace 4.1, Siemens®, Knoxville, USA) on the fusion images encompassing the entire 120-min recording period. Spheroid ROIs were placed inside the liver, brain, and kidney regions with the ROI limits approximating the organ limits as close as possible. Tumor and heart ROIs were obtained with isocontour ROIs and threshold limits of 50 and 80%, respectively, of the maximal voxel value.

Data set [2] concerns human U87-MG glioblastoma tumor xenografts in the flank. Nature of the data set: in vivo. The conditions noted are these: mouse. The protocol:
as §1, §2, §3, §4

Data set [3] can be described thus: in vivo. The conditions noted are these: male, athymic nude (Hsd: RH-Foxn1rnu), rat, total radioactivity. The source says:
(§5) Briefly, 8-week-old athymic male nude rats (180–220 g), (Hsd: RH-Foxn1rnu; Envigo, Gannat, France), were anesthetized with a mixture of air and 1.5–2% isoflurane and were placed in a Kopf stereotactic frame (900 M Kopf Instruments, Tujunga, CA). After a scalp incision, a burr hole was drilled 0.5 mm anterior and 2.7 mm lateral to bregma and a skull anchor (Patent N° 11 55596) was affixed.

The subject of data set [4] is human U87-MG glioblastoma tumor xenografts in the flank. The conditions noted are these: mouse, iv. How it is done: Animals were sacrificed by cervical dislocation 60 min after injection. Various tissues (tumor, liver, heart, brain, and kidney) were dissected, weighed, and counted in a calibrated gamma counter (Wizard, PerkinElmer, France). The results were expressed as percentages of injected dose and per gram of tissue (% ID/g).

The subject of data set [5] is human U87-MG glioblastoma tumor xenografts in the brain. The data set is described as follows: in vivo. Conditions: rat.
Source text: as §5

On to `N=C(N)NCCC[C@@H]1NC(=O)[C@H](CCCCNC(=O)CCC(C(=O)O)N2CCN(CC(=O)O)CCN(CC(=O)O)CC2)NC(=O)[C@@H](Cc2ccc(O)cc2)NC(=O)[C@H](CC(=O)O)NC(=O)CNC1=O` (stereo partly shown) [^68Ga-NODAGA-RGD, metal not drawn], for which, in “in vivo [1]”, the SUV at 1 h is 0.23 ± 0.04 SUV. Also, the “route of tracer clearance” value in data set [2] was “primary renal route of tracer clearance”. The SUV in the data set “in vivo [3]” (SUVmean_ contralateral normal brain) was found to be 0.1 SUV; in the data set “in vivo [3]” (SUVmean_Tumor), 0.5 SUV.
Take `OC[C@H]1OC(O)[C@H](F)[C@@H](O)[C@@H]1O` (stereo partly shown) [^18F-FDG, ^18F-fluorodeoxyglucose]: in data set [2], the “course of tumor uptake with time” value is on record as “progressive enhancement”, the “route of tracer clearance” value was “primary renal route of tracer clearance” and the “tumor-to-normal brain ratio (PET imaging)” value turned out to be 1.5 ± 0.37. In addition, in data set [2] (iv), the “mean tumor activity (SUVmean)” value came out at 1.19 ± 0.33. Further, in data set [4], the “tumor-to-normal brain ratio (ex vivo biodistribution data, gamma counter)” value is listed as 0.61 ± 0.2 %ID/g. Moreover, the “tumor activity relative to contralateral normal brain” value in data set [5] is recorded as 1.62 ± 0.15.
